What was measured:
[1] = n-Octanol-phosphate buffer partition coefficient, log P of the compound at pH 7.4 by shake flask method; format: physicochemical
BT-549 = test: Cytotoxicity against human BT549 cells at 10 uM after 48 hrs by SRB assay; format: functional; conditions: BT-549, 48 h, read-out: GI
T47D = test: Cytotoxicity against human T47D cells at 10 uM after 48 hrs by SRB assay; format: functional; conditions: read-out: GI
Hs-578T = test: Cytotoxicity against human Hs578T cells at 10 uM after 48 hrs by SRB assay; format: functional; conditions: read-out: GI
MCF7 = test: Cytotoxicity against human MCF7 cells at 10 uM after 48 hrs by SRB assay; format: functional; conditions: MCF7, 48 h, read-out: GI
MDA-MB-231 = test: Cytotoxicity against human MDA-MB-231 cells at 10 uM after 48 hrs by SRB assay; format: functional; conditions: MDA-MB-231, 48 h, read-out: GI
UO-31 = test: Cytotoxicity against human UO31 cells at 10 uM after 48 hrs by SRB assay; format: functional; conditions: UO-31, 48 h, read-out: GI
PC-3 = test: Cytotoxicity against human PC3 cells at 10 uM after 48 hrs by SRB assay; format: functional; conditions: PC-3, 48 h, read-out: GI
TK-10 = test: Cytotoxicity against human TK10 cells at 10 uM after 48 hrs by SRB assay; format: functional; conditions: TK-10, 48 h, read-out: GI
A498 = test: Cytotoxicity against human A498 cells at 10 uM after 48 hrs by SRB assay; format: functional; conditions: A498, 48 h, read-out: GI
786-0 = test: Cytotoxicity against human 786-0 cells at 10 uM after 48 hrs by SRB assay; format: functional; conditions: 786-0, 48 h, read-out: GI
NCI/ADR-RES = test: Cytotoxicity against human NCI/ADR-RES cells at 10 uM after 48 hrs by SRB assay; format: functional; conditions: read-out: GI
OVCAR-8 = test: Cytotoxicity against human OVCAR8 cells at 10 uM after 48 hrs by SRB assay; format: functional; conditions: OVCAR-8, 48 h, read-out: GI
OVCAR-5 = test: Cytotoxicity against human OVCAR5 cells at 10 uM after 48 hrs by SRB assay; format: functional; conditions: OVCAR-5, 48 h, read-out: GI
OVCAR-4 = test: Cytotoxicity against human OVCAR4 cells at 10 uM after 48 hrs by SRB assay; format: functional; conditions: OVCAR-4, 48 h, read-out: GI
IGROV-1 = test: Cytotoxicity against human IGROV1 cells at 10 uM after 48 hrs by SRB assay; format: functional; conditions: IGROV-1, 48 h, read-out: GI
UACC-62 = test: Cytotoxicity against human UACC62 cells at 10 uM after 48 hrs by SRB assay; format: functional; conditions: UACC-62, 48 h, read-out: GI
UACC-257 = test: Cytotoxicity against human UACC257 cells at 10 uM after 48 hrs by SRB assay; format: functional; conditions: UACC-257, 48 h, read-out: GI
SK-MEL-28 = test: Cytotoxicity against human SK-MEL-28 cells at 10 uM after 48 hrs by SRB assay; format: functional; conditions: SK-MEL-28, 48 h, read-out: GI
SK-MEL-5 = test: Cytotoxicity against human SK-MEL-5 cells at 10 uM after 48 hrs by SRB assay; format: functional; conditions: SK-MEL-5, 48 h, read-out: GI
SK-MEL-2 = test: Cytotoxicity against human SK-MEL-2 cells at 10 uM after 48 hrs by SRB assay; format: functional; conditions: SK-MEL-2, 48 h, read-out: GI
MDA-MB-435 = test: Cytotoxicity against human MDA-MB-435 cells at 10 uM after 48 hrs by SRB assay; format: functional; conditions: MDA-MB-435, 48 h, read-out: GI
LOX IMVI = test: Cytotoxicity against human LOXIMVI cells at 10 uM after 48 hrs by SRB assay; format: functional; conditions: read-out: GI
SNB-19 = test: Cytotoxicity against human SNB19 cells at 10 uM after 48 hrs by SRB assay; format: functional; conditions: SNB-19, 48 h, read-out: GI
SF-295 = test: Cytotoxicity against human SF295 cells at 10 uM after 48 hrs by SRB assay; format: functional; conditions: SF-295, 48 h, read-out: GI
SW-620 = test: Cytotoxicity against human SW620 cells at 10 uM after 48 hrs by SRB assay; format: functional; conditions: SW-620, 48 h, read-out: GI
KM12 = test: Cytotoxicity against human KM12 cells at 10 uM after 48 hrs by SRB assay; format: functional; conditions: KM12, 48 h, read-out: GI
HT-29 = test: Cytotoxicity against human HT-29 cells at 10 uM after 48 hrs by SRB assay; format: functional; conditions: HT-29, 48 h, read-out: GI
HCT-15 = test: Cytotoxicity against human HCT15 cells at 10 uM after 48 hrs by SRB assay; format: functional; conditions: HCT-15, 48 h, read-out: GI
HCT-116 = test: Cytotoxicity against human HCT116 cells at 10 uM after 48 hrs by SRB assay; format: functional; conditions: HCT-116, 48 h, read-out: GI
COLO 205 = test: Cytotoxicity against human COLO205 cells at 10 uM after 48 hrs by SRB assay; format: functional; conditions: COLO 205, 48 h, read-out: GI
NCI-H522 = test: Cytotoxicity against human NCI-H522 cells at 10 uM after 48 hrs by SRB assay; format: functional; conditions: NCI-H522, 48 h, read-out: GI
NCI-H460 = test: Cytotoxicity against human NCI-H460 cells at 10 uM after 48 hrs by SRB assay; format: functional; conditions: NCI-H460, 48 h, read-out: GI
NCI-H226 = test: Cytotoxicity against human NCI-H226 cells at 10 uM after 48 hrs by SRB assay; format: functional; conditions: NCI-H226, 48 h, read-out: GI
NCI-H23 = test: Cytotoxicity against human NCI-H23 cells at 10 uM after 48 hrs by SRB assay; format: functional; conditions: NCI-H23, 48 h, read-out: GI
HOP-92 = test: Cytotoxicity against human HOP92 cells at 10 uM after 48 hrs by SRB assay; format: functional; conditions: HOP-92, 48 h, read-out: GI
[2] = Cytotoxicity against human EKVX cells at 10 uM after 48 hrs by SRB assay; format: functional; conditions: read-out: GI
A549 = test: Cytotoxicity against human A549 cells at 10 uM after 48 hrs by SRB assay; format: functional; conditions: A549, 48 h, read-out: GI
SR = test: Cytotoxicity against human SR cells at 10 uM after 48 hrs by SRB assay; format: functional; conditions: read-out: GI
MOLT-4 = test: Cytotoxicity against human MOLT4 cells at 10 uM after 48 hrs by SRB assay; format: functional; conditions: MOLT-4, 48 h, read-out: GI
RPMI-8226 = test: Cytotoxicity against human RPMI8226 cells at 10 uM after 48 hrs by SRB assay; format: functional; conditions: RPMI-8226, 48 h, read-out: GI
K562 = test: Cytotoxicity against human K562 cells at 10 uM after 48 hrs by SRB assay; format: functional; conditions: K562, 48 h, read-out: GI

C=CCn1c(C)nc2ccc(Nc3nc(N4CCCC4)nc4ccccc34)cc21
logD [1]: 2.9
inhibition of growth at 10 µM (BT-549): 13.1%
inhibition of growth at 10 µM (T47D): < 10%
inhibition of growth at 10 µM (Hs-578T): 13.1%
inhibition of growth at 10 µM (MCF7): 38.1%
inhibition of growth at 10 µM (MDA-MB-231): 58%
inhibition of growth at 10 µM (UO-31): 31.9%
inhibition of growth at 10 µM (PC-3): < 10%
inhibition of growth at 10 µM (TK-10): < 10%
inhibition of growth at 10 µM (A498): 28.5%
inhibition of growth at 10 µM (786-0): 24%
inhibition of growth at 10 µM (NCI/ADR-RES): 16.7%
inhibition of growth at 10 µM (OVCAR-8): 15.9%
inhibition of growth at 10 µM (OVCAR-5): < 10%
inhibition of growth at 10 µM (OVCAR-4): < 10%
inhibition of growth at 10 µM (IGROV-1): < 10%
inhibition of growth at 10 µM (UACC-62): < 10%
inhibition of growth at 10 µM (UACC-257): < 10%
inhibition of growth at 10 µM (SK-MEL-28): 19.8%
inhibition of growth at 10 µM (SK-MEL-5): 37.6%
inhibition of growth at 10 µM (SK-MEL-2): < 10%
inhibition of growth at 10 µM (MDA-MB-435): < 10%
inhibition of growth at 10 µM (LOX IMVI): 97.5%
inhibition of growth at 10 µM (SNB-19): < 10%
inhibition of growth at 10 µM (SF-295): 16.3%
inhibition of growth at 10 µM (SW-620): 24.9%
inhibition of growth at 10 µM (KM12): 29.9%
inhibition of growth at 10 µM (HT-29): 94.3%
inhibition of growth at 10 µM (HCT-15): 20.6%
inhibition of growth at 10 µM (HCT-116): 80.3%
inhibition of growth at 10 µM (COLO 205): < 10%
inhibition of growth at 10 µM (NCI-H522): < 10%
inhibition of growth at 10 µM (NCI-H460): 18.7%
inhibition of growth at 10 µM (NCI-H226): < 10%
inhibition of growth at 10 µM (NCI-H23): 11.3%
inhibition of growth at 10 µM (HOP-92): 18.6%
inhibition of growth at 10 µM [2]: < 10%
inhibition of growth at 10 µM (A549): 25.4%
inhibition of growth at 10 µM (SR): 94.2%
inhibition of growth at 10 µM (MOLT-4): 50%
inhibition of growth at 10 µM (RPMI-8226): 45%
inhibition of growth at 10 µM (K562): 98%

— ChEMBL document CHEMBL2380212, “Synthesis, single crystal and antitumor activities of benzimidazole-quinazoline hybrids” (Bioorg Med Chem Lett, 2013)
